{"source": "patent US6617158B1", "about": "“Method for stimulating the production of fetal hemoglobin producing erythroid cells” (New England Medical Center, priority 1999, dated 2003)", "molecules": {"B1": {"name": "TGF-beta 2: form of transforming growth factor beta titrated against TGF-beta 1 (protein, UniProt P61812 303-414, looked up)", "Transforming growth factor …": "ALDAAYCFRNVQDNCCLRPLYIDFKRDLGWKWIHEPKGYNANFCAGACPYLWSSDTQHSRVLSLYNTINPEASASPCCVSQDLEPLTILYYIGKTPKIEQLSNMIVKSCKCS", "modifications": "Transforming growth factor beta-2"}}, "assay_type_in_all_cases": "cell-based, human", "key": {"[1]": {"tested_on": "F+ cells (HbF-containing nucleated red cells) in cultures of mononuclear cells from adult blood", "test": "Erythroid culture of adult blood mononuclear cells; proportions of F+ cells by two-color flow cytometry"}, "[2]": {"tested_on": "Mononuclear cells from one sickle cell patient", "test": "Sickle cell erythropoiesis culture; HbF vs HbS flow cytometry profiles", "conditions": "continuous culture in 30% FCS or 10 ng/ml TGF-beta, day 7", "method": "(§1) Cells are fixed with 5% formaldehyde in PBS at 37° C. for 1 h, exposed to 100% methanol for 5 min at room temperature, then permeabilized in Solution B of the Caltag Fix & Perm kit during incubation with phycoerythrin-conjugated antibodies to the gamma chain of hemoglobin (HbF) (Cortex) and fluorescein isothiocyanate-conjugated antibodies to the beta chain of hemoglobin (HbA) or to fluorescein isothiocyanate-conjugated antibodies specific for sickle cell hemoglobin (HbS) (Isolabs). After incubation, cells are washed and suspended in PBS with 1% formaldehyde and 0.1 μg/ml Hoechst 33342.\nMononuclear cells from one sickle cell patient were continuously cultured in 30% FCS or 10 ng/ml TGF-beta. The cells were labeled with the same antibodies to HbF but with antibodies specific for HbS instead of HbA."}, "[3]": {"tested_on": "F+ cells (HbF-containing nucleated red cells) in cultures of mononuclear cells from adult blood", "test": "Erythroid culture of adult blood mononuclear cells; proportions of F+ cells by two-color flow cytometry", "method": "as §1\n(§2) Cells are processed in a Becton-Dickinson Vantage flow cytometer/cell sorter with dual laser excitation (UV and 488 nm). Intact nucleated cells are selected by gating on UV-excited Hoechst […] fluorescence (430 nm) which yielded DNA histograms as well as cell cycle information by BudR-induced fluorescence quenching. Bohmer, Cell Tissue Kinet. 12: 101-110 (1979). Phycoerythrin (PE) and Fluorescein isothiocyanate (FITC) are excited at 488 nm and measured at 530 nm and 575 nm, […]. Correlated fluorescence values are recorded with appropriate color compensation. The accuracy of color compensation over 4 logs of fluorescence values is limited. To obtain absolute cell counts from the relative particle counts that a flow cytometer provides, known amounts of fluorescent plastic beads (Coulter Immunobrite Level IV) are added to the cell suspensions. Bohmer, Cell Tissue Kinet. 17: 593-600 (1984).\nBlood samples were kept at room temperature and processed as soon as possible (between 2 h and 24 h) after collection. The blood was diluted 1:4 with phosphate buffered saline (PBS), the mononuclear cells isolated by density gradient (density 1.077), washed in PBS with 1% BSA (bovine serum albumin) and cultured without further processing in standard 6-well plates, 3-5 ml per well, at a maximum density of 0.3 million/ml. The standard medium (referred to as “control” medium) comprised a mixture of 2/3 Iscoves MDM and 1/3 RPMI1640, containing methylcellulose (0.9%), C—CHS (1%), EPO (1 U/ml), SCF (20 ng/ml), IL3 (10 ng/ml), insulin (3 μg/ml), iron-saturated transferring (70 μg/ml), mercaptoethanol ([…]). Cytokines were from R&D Systems, Minneapolis, Minn. or Genzyme, Cambridge, Mass.\nA relatively brief exposure to TGF-beta during the first few days of cell culture caused a lasting shift towards HbF expression with no reduction in subsequent clonal expansion (see data below). […]\nThe effect of TGF-beta treatment on cell cultures was examined and compared to the effect of serum. […] On day 7, cultures containing hundreds of colonies were turned into single-cell suspensions and the correlated contents of HbA and HbF measured by flow cytometry (FIG. 1). […]", "remark": "listed apart in the source"}, "[4]": {"tested_on": "F+ and F-A+ cells in cultures of mononuclear cells from adult blood", "test": "Absolute numbers of F+ and F-A+ cells per culture and long-term proliferation", "method": "FIG. 5A is an example of a time course from one experiment. Cultures were treated with TGF-beta for 4 days, then propagated without TGF-beta, with further subcultivation and dilution on days 7 (1:10), 10 (1:5) and 13 (1:5). Absolute numbers of F+ and F−A+ cells per culture were determined on days 7, 10, 13 and 16. Total cell numbers were calculated using preceding culture dilution factors in the following manner: at each time of analysis, some of the cells were removed for counting, those that go back into the culture after counting are seeded with a dilution of fresh medium, to avoid medium exhaustion. Therefore, the actual numbers in the plates increase only between seeding and harvest. To calculate cell production over the whole culture time, it is necessary to multiply the counted cell numbers in the plates with all previous culture dilution factors. Closed symbols depict data from F−A+ cells, open symbols show F+ cells, and triangles show TGF-beta-treated cultures, while circles show the controls.\nFIG. 5B is a graph indicating the TGF-beta-induced change of total F+ and F− cell numbers, shown as ratio of N(TGF)/N(CON). Cultures were treated with TGF-beta for 4 days., then propagated without TGF-beta, with further subcultivation and dilution on days 7 (1:10), 10 (1:5) and 13 (1:5). Absolute numbers of F+ and F−A+ cells per culture were determined on days 7, 10, 13 and 16. Individual experiments are distinguished by different symbols. […] Median values are indicated by horizontal bar.\nas §2\nCultures that were treated with TGF-beta from day 0-4 were sub-cultivated again on days 7, 10 and 13, and the total numbers of F+ and F−A+ cells per culture were determined on days 7, 10, 13 and 16. […] Between day 7 and 10, both cell types in both cultures proliferated at approximately the same rate. After day 10, in control cultures, the proliferation decreased strongly and equally for both F+ and F−A+ cells, maintaining the ratio. No secondary colonies were seen following the subcultivation on day 13. In contrast, the proliferation in TGF-beta-treated cultures continued for much longer for both F+ and F−A+ cells. The F−A+ cell numbers were gradually reducing the gap with F+ cells, in agreement with the gradually decreasing proportions of F+ cells shown in FIG. 4. The number of days for which the proliferation of TGF-beta-treated cultures could be maintained was highly variable between donors and appeared to correlate with the initial numbers of clonogenic cells per ml of blood. […]"}, "[5]": {"tested_on": "secondary erythroid colonies", "test": "Secondary erythroid colony counts after re-seeding (cell cycle effect)", "conditions": "first few days of treatment", "method": "Cell cultures were seeded in the presence (TGF) and absence (CON) of TGF-beta and on days 1, 2, 3 and 4 washed and re-seeded in the absence of TGF-beta. On day 9, the secondary colonies/clusters were counted and plotted as a function of the number of the day of treatment before reseeding. […] Statistics from 5 experiments are shown.\nTo test the cell cycle effect of TGF-beta during the first 4 days of treatment, the numbers of secondary erythroid colonies that developed upon re-seeding the cultures after different duration of TGF-beta exposure were counted (FIG. 7). A decrease in the number of secondary colonies upon re-seeding would reflect a decrease in the number of divisions undergone by colony forming cells before the cultures were re-seeded as a single-cell suspension. However, the secondary colonies became smaller and more numerous, without much effect of TGF-beta. The numbers of secondary colonies began to increase between day 1 and 2, equally in TGF-beta and controls. Between days 3 and 4 the beginnings of inhibition by TGF-beta could be seen."}}, "data": [{"molecule": "TGF-beta 3: form of transforming growth factor beta titrated against TGF-beta 1", "values": [{"measurement": "relative potency to increase proportions of F+ cells", "setting": "[1]; titration, treatment began day 2, re-seeded day 4, F+ on day 7", "value": "in between TGF-beta 1 and TGF-beta 2"}]}, {"molecule": "TGF-beta: recombinant human transforming growth factor beta-1", "values": [{"measurement": "relative F+ cell numbers", "setting": "[2]", "value": "increase in relative F+ cell numbers"}, {"measurement": "effect on proportions of F+ cells", "setting": "[3]; 10 ng/ml, exposure day 0-4 or continuous, analysis day 7", "value": "increased the proportions of F+ cells dramatically"}, {"measurement": "increased proportions of F+ cells during further culture growth", "setting": "[3]; 4-day treatment, then control medium, re-seeded days 7 and 10", "value": "maintained"}, {"measurement": "proportions of F+ cells, plateau", "setting": "[3]; as function of exposure time (0-4 days), analysed day 7, 30% FCS or TGF-beta", "value": 80, "unit": "%"}, {"measurement": "total cell counts", "setting": "[3]; continuous treatment up to day 7 (not the 4-day treatment)", "value": "strongly reduced total cell counts"}, {"measurement": "growth of newly developing secondary colonies", "setting": "[1]; added from day 7, after approximately 2 days of treatment, 8-16-cell stage", "value": "complete and lasting growth arrest"}, {"measurement": "effect on F+ proportions when added at later culture phase", "setting": "[1]; newly supplied beginning on day 7", "value": "no effect on F+ proportions"}, {"measurement": "proportions of F+ cells after exposure for only one day", "setting": "[1]; one day exposure between days 2 and 4", "value": "substantially increased"}, {"measurement": "N(TGF)/N(CON) of F+ cells", "setting": "[4]; 2 (out of 5) experiments, proliferating beyond 3 weeks", "value": "exceeding 100"}, {"measurement": "total numbers of F-A+ cells versus control cultures", "setting": "[4]; between days 7 and 10, treatment day 0-4", "value": "dramatically reduced"}, {"measurement": "reduction of F-A+ cell numbers", "setting": "[4]; day 7, treatment day 0-4", "value": "ca. 10 fold"}, {"measurement": "F+ cell numbers, ratio N(TGF)/N(CON)", "setting": "[4]; day 7, treatment day 0-4, median", "value": 1}, {"measurement": "F+ population level versus controls", "setting": "[4]; on average, with increasing culture time, treatment day 0-4", "value": "ca. 10 fold"}, {"measurement": "effect on cytokine-dependent proliferation (secondary colony numbers)", "setting": "[5]", "value": "did not interfere with cytokine-dependent proliferation"}]}, {"molecule": "B1", "values": [{"measurement": "relative effectiveness versus TGF-beta 1 to increase proportions of F+ cells", "setting": "[1]; titration, treatment began day 2, re-seeded day 4, F+ on day 7, average of two experiments", "value": "~100", "unit": "times"}]}]}
